Test system: gene expression in etiolated eto1-4 seedlings
Test: Transcriptional profiling (ATH1 GeneChip microarray) of etiolated eto1-4 seedlings
Format: in vivo, Arabidopsis thaliana
Settings: ratio eto1-4 treated to eto1-4 (no treatment)
Protocol: For chemical treatments, seeds were sown on 0.5×MS agar medium supplemented with 10 μM chemicals (AVG, compounds 9393, 9370, and 7303) or DMSO (as control). Arabidopsis seeds were stratified in the dark at 4° C. for 4 days, then germinated in the dark for 3 days at 22° C. Approximately 2,000 etiolated seedlings of the wild type or eto1-4 were used to collect tissues for preparation of total RNA in each microarray experiment with Arabidopsis ATH1 GeneChip (Affymetrix). Extraction of RNA followed an established protocol (Chang, et al. (1993) Plant Mol. Biol. Rep. 11, 113-117). Total RNA (10 μg) was used to prepare biotinylated cRNA for hybridization to ATH1 GeneChip in the experiments disclosed herein. Experiments were repeated by 2 independent biological duplicates, and candidate genes present in both experiments were selected for further analysis. The MASS method was used for data analysis and normalization by all sample medium. Candidate genes were selected by the following criteria. First, genes with 1.5-fold differential expression between the wild type and eto1-4 were selected as the master gene pool, which was then used for comparison in treatments with AVG and individual exemplary compounds. Data were presented in hierarchical clustering and Venn diagram format. Agilent GeneSpring GX and Bioconductor software were used to analyze the expression profile data. Gene Ontology descriptions were generated by GeneSpring GX and further referred to the TAR GO database. Raw data are available in the GEO database (http://www.ncbi.nlm.nih.gov/geo) with Accession no. GSE20897.
The filtered and normalized expression data set from 22810 probes on the ATH1 Genechip was used for hierarchical clustering of gene expression profiles for comparison between AVG and the exemplary invention compounds in eto1-4. It was identified that 1,446 genes show at least 1.5-fold difference in expression between the WT and eto1-4 and used them as the master gene pool for clustering analysis (FIG. 7A). […] These genes likely contribute to the etiolated phenotype of eto1-4 by responding to elevated endogenous ethylene. To determine whether the exemplary compounds have specific r overlapping functions with AVG to suppress the eto1-4 phenotype, genes that are regulated by individual exemplary invention compounds and AVG for Venn diagram analysis were clustered (FIG. 7B). More than 63% of genes (356/561 for compound 9393; 389/561 for compound 9370; 399/561 for compound 7303; FIG. 7B) with expression associated with AVG were co-regulated by the exemplary invention compounds, which indicates an overlap function in suppression of the ethylene phenotype in eto1-4. […] Next genes co-regulated by all of the exemplary invention compounds and AVG were examined by performing a clustering analysis using the co-regulated genes identified in FIG. 7B: 356 (compound 9393 vs AVG), 389 (compound 9370 vs AVG) and 399 genes (compound 7303 vs AVG). It was uncovered that 276 genes were co-regulated by all of the exemplary invention compounds and AVG (FIG. 7C and Table 2). On the basis of GO descriptions generated by Gene Spring GX and TAIR database, the 276 genes were divided into subgroups related to their biological functions (Table 2). […] In addition, stress- and pathogenesis-related genes were among the co-regulated genes, possibly because ethylene is involved in both biotic and abiotic stresses.
Genes (1446 non-redundant loci) were selected by 1.5-fold differential expression between eto1-4 and WT as the master pool for analysis. These genes were used for comparison between chemical treatments by AVG and the exemplary invention compounds. The finalized 276 genes that are co-regulated by AVG and all of the exemplary invention compounds are shown. Locus ID also present in Nemhauser et al. (Nemhauser, et al. (2006) Cell 126, 467-475).

Compound: COc1ccc(C2CC(=O)c3cnc(Nc4ccccc4)nc3C2)cc1 (centres unmarked) [Compound 7303]
- Signal Fold Change AT3G14850, unknown biological function: 0.13
- Signal Fold Change AT3G15890 protein kinase: 2.14
- Signal Fold Change AT3G16450 jacalin lectin protein: 3.13
- Signal Fold Change AT3G16470 jacalin lectin protein: 6.91
- Signal Fold Change AT3G16690, unknown biological function: 4.80
- Signal Fold Change AT3G17680, unknown biological function: 0.17
- Signal Fold Change AT3G20130 cytochrome P450: 1.89
- Signal Fold Change AT3G21770 peroxidase 30: 1.84
- Signal Fold Change AT3G22620 lipid transfer protein: 2.70
- Signal Fold Change AT3G23150 ethylene receptor, putative (ETR2): 0.18
- Signal Fold Change AT3G23800, unknown biological function: 0.33
- Signal Fold Change AT3G24670, unknown biological function: 0.38
- Signal Fold Change AT3G25710 bHLH protein: 2.51
- Signal Fold Change AT3G25730 AP2-containing transcription factor: 0.21
- Signal Fold Change AT3G25980 mitotic spindle checkpoint protein: 2.49
- Signal Fold Change AT3G27580 protein kinase: 0.46
- Signal Fold Change AT3G28290, unknown biological function: 0.27
- Signal Fold Change AT3G29250 short-chain dehydrogenase: 20.57
- Signal Fold Change AT3G30775 proline oxidase, mitochondrial: 4.43
- Signal Fold Change AT3G43270 pectinesterase protein: 0.33
- Signal Fold Change AT3G44820, response to light stimulus, phototropic-responsive NPH3 protein: 2.99
- Signal Fold Change AT3G44990 endo-xyloglucan transferase: 0.21
- Signal Fold Change AT3G45710 proton-dependent oligopeptide transport (POT) protein: 4.30
- Signal Fold Change AT3G46130 myb transcription factor (MYB48): 2.20
- Signal Fold Change AT3G46700 UDP-glucosyl transferase: 7.33
- Signal Fold Change AT3G47210, unknown biological function: 3.50
- Signal Fold Change AT3G47250, unknown biological function: 5.15
- Signal Fold Change AT3G49780 phytosulfokines 3 (PSK3): 9.23
- Signal Fold Change AT3G50660 steroid 22-alpha-hydroxylase: 4.40
- Signal Fold Change AT3G51410, unknown biological function: 0.21
- Signal Fold Change AT3G51970, unknown biological function: 3.02
- Signal Fold Change AT3G52180 protein tyrosine phosphatase: 0.22
- Signal Fold Change AT3G52920 expressed protein (defense response): 3.88
- Signal Fold Change AT3G53540, unknown biological function: 0.41
- Signal Fold Change AT3G56480, unknown biological function: 2.86
- Signal Fold Change AT3G58710 WRKY transcription factor: 2.61
- Signal Fold Change AT3G59370, unknown biological function: 3.33
- Signal Fold Change AT3G59710 short-chain dehydrogenase: 0.48
- Signal Fold Change AT3G59900, unknown biological function: 0.39
- Signal Fold Change AT3G60520, unknown biological function: 0.30
- Signal Fold Change AT3G61160 shaggy-related protein kinase beta/ASK-beta (ASK2): 5.02
- Signal Fold Change AT4G00730 anthocyaninless2: 0.54
- Signal Fold Change AT4G01410, unknown biological function: 0.54
- Signal Fold Change AT4G03140 short-chain dehydrogenase: 0.23
- Signal Fold Change AT4G08300, unknown biological function: 4.13
- Signal Fold Change AT4G09570 calcium-dependent protein kinase: 0.34
- Signal Fold Change AT4G10910, unknown biological function: 4.49
- Signal Fold Change AT4G11190 disease resistance-responsive protein: 9.71
- Signal Fold Change AT4G11280 ACC synthase 6: 2.00
- Signal Fold Change AT4G11310 cysteine proteinase: 17.92
- Signal Fold Change AT4G12080, unknown biological function: 2.09
- Signal Fold Change AT4G12410 auxin-responsive protein: 3.30
- Signal Fold Change AT4G12480 lipid transfer protein: 0.06
- Signal Fold Change AT4G13210, unknown biological function: 0.27
- Signal Fold Change AT4G15550 UDP-glucose:indole-3-acetate beta-D-glucosyltransferase: 0.39
- Signal Fold Change AT4G15920, unknown biological function: 23.20
- Signal Fold Change AT4G17220 expressed protein (cytoskeleton organization and biogenesis): 2.48
- Signal Fold Change AT4G18340 glycosyl hydrolase: 3.43
- Signal Fold Change AT4G23410 senescence-associated protein: 1.83
- Signal Fold Change AT4G25780, unknown biological function: 9.00
- Signal Fold Change AT4G26010 peroxidase: 0.49
- Signal Fold Change AT4G28085, unknown biological function: 3.16
- Signal Fold Change AT4G31000, unknown biological function: 0.51
- Signal Fold Change AT4G32920, unknown biological function: 2.81
- Signal Fold Change AT4G34560, unknown biological function: 2.51
- Signal Fold Change AT4G34760 auxin-responsive protein: 0.22
- Signal Fold Change AT4G35060 copper chaperone: 3.90
- Signal Fold Change AT4G35150, unknown biological function: 0.31
- Signal Fold Change AT4G36520, unknown biological function: 2.99
- Signal Fold Change AT4G37220 stress-responsive protein: 15.33
- Signal Fold Change AT4G38690, signal transduction, 1-phosphatidylinositol: 3.39
- Signal Fold Change AT4G39210 ADP-glucose pyrophosphorylase: 0.34
- Signal Fold Change AT4G39800 inositol-3-phosphate synthase isozyme 1: 2.69
- Signal Fold Change AT4G39840, unknown biological function: 0.36
- Signal Fold Change AT5G01210, unknown biological function: 0.37
- Signal Fold Change AT5G01300, unknown biological function: 2.28
- Signal Fold Change AT5G02260, cell wall organization and biogenesis, expansin (EXP9): 0.23
- Signal Fold Change AT5G02540 short-chain dehydrogenase: 0.33
- Signal Fold Change AT5G03160 DNAJ heat shock N-terminal domain-containing protein: 2.24
- Signal Fold Change AT5G04080, unknown biological function: 3.07
- Signal Fold Change AT5G05180, unknown biological function: 1.98
- Signal Fold Change AT5G06200, unknown biological function: 1.99
- Signal Fold Change AT5G08240, unknown biological function: 2.56
- Signal Fold Change AT5G08260 serine carboxypeptidase S10 protein: 0.35
- Signal Fold Change AT5G08370 alpha-galactosidase: 3.99
- Signal Fold Change AT5G09980 expressed protein (defense response): 0.28
- Signal Fold Change AT5G10720 sensory transduction histidine kinase: 0.36
- Signal Fold Change AT5G11540, unknown biological function: 6.69
- Signal Fold Change AT5G12170, response to cadmium ion, expressed protein: 0.34
- Signal Fold Change AT5G13870 endo-xyloglucan transferase: 0.19
- Signal Fold Change AT5G13910 AP2/EREBP-like transcription factor: 0.40
- Signal Fold Change AT5G14780 formate dehydrogenase: 0.41
- Signal Fold Change AT5G14920 gibberellin-regulated protein: 0.33
- Signal Fold Change AT5G15290, unknown biological function: 2.99
- Signal Fold Change AT5G15530 biotin carboxyl carrier protein 2: 0.43
- Signal Fold Change AT5G15830 bZIP transcription factor protein: 4.29
- Signal Fold Change AT5G18470, unknown biological function: 0.24
- Signal Fold Change AT5G18670 beta-amylase: 0.63
- Signal Fold Change AT5G18860, unknown biological function: 3.13
- Signal Fold Change AT5G18970, unknown biological function: 3.98
- Signal Fold Change AT5G19890 peroxidase: 0.03
- Signal Fold Change AT5G19930, unknown biological function: 1.84
- Signal Fold Change AT5G20410 monogalactosyldiacylglycerol synthase: 2.86
- Signal Fold Change AT5G22310, unknown biological function: 0.46
- Signal Fold Change AT5G22860 serine carboxypeptidase S28 protein: 3.07
- Signal Fold Change AT5G23750, unknown biological function: 4.93
- Signal Fold Change AT5G24870, unknown biological function: 2.71
- Signal Fold Change AT5G25140 cytochrome P450: 6.66
- Signal Fold Change AT5G25160 zinc finger (C2H2 type) protein: 2.70
- Signal Fold Change AT5G25190 ethylene-responsive element-binding protein: 0.25
- Signal Fold Change AT5G34940, unknown biological function: 0.44
- Signal Fold Change AT5G37300, unknown biological function: 5.67
- Signal Fold Change AT5G38930, unknown biological function: 0.16
- Signal Fold Change AT5G39860 bHLH protein: 4.44
- Signal Fold Change AT5G41900 hydrolase: 4.02
- Signal Fold Change AT5G44410, unknown biological function: 2.89
- Signal Fold Change AT5G44580, unknown biological function: 0.14
- Signal Fold Change AT5G46890 lipid transfer protein: 3.10
- Signal Fold Change AT5G47240, unknown biological function: 8.92
- Signal Fold Change AT5G47330 palmitoyl protein thioesterase protein: 2.34
- Signal Fold Change AT5G47450 major intrinsic protein: 2.81
- Signal Fold Change AT5G47950, unknown biological function: 4.37
- Signal Fold Change AT5G48490 lipid transfer protein: 3.78
- Signal Fold Change AT5G48900, unknown biological function: 0.58
- Signal Fold Change AT5G49900, unknown biological function: 3.82
- Signal Fold Change AT5G50720 ABA-responsive protein (HVA22e): 2.97
- Signal Fold Change AT5G52120 SKP1 interacting partner 3 protein: 11.57
- Signal Fold Change AT5G53190, unknown biological function: 7.32
- Signal Fold Change AT5G53830, unknown biological function: 0.30
- Signal Fold Change AT5G56320, cell wall organization and biogenesis, expansin (EXP14): 4.57
- Signal Fold Change AT5G58660, unknown biological function: 0.40
- Signal Fold Change AT5G59540 oxidoreductase: 0.34
- Signal Fold Change AT5G63450 cytochrome P450: 16.44
- Signal Fold Change AT5G63650 serine/threonine protein kinase: 0.59
- Signal Fold Change AT5G65970 seven transmembrane MLO protein: 2.84
- Signal Fold Change AT5G66310, microtubule-based movement, kinesin motor protein: 0.48
- Signal Fold Change AT5G66400 dehydrin (RAB18): 1.10
- Signal Fold Change AT5G66440, unknown biological function: 0.32
- Signal Fold Change AT5G66460 (1-4)-beta-mannan endohydrolase: 0.52
- Signal Fold Change AT5G66780, unknown biological function: 1.48

— patent US8481459B2, “Chemical inhibitors of ethylene biosynthesis” (Academia Sinica, priority 2010, dated 2013)
